In publication PMC10584170, “Machine learning-based phenotypic imaging to characterise the targetable biology of Plasmodium falciparum male gametocytes for the development of transmission-blocking antimalarials” (PLOS Pathogens, 2023):
Like-named read-outs stand apart in the source and are kept apart here.

How the values were obtained:
[1] = test system: P. falciparum male gametocytes; assay: P. falciparum Dual Gamete Formation Assay (PfDGFA), male readout (exflagellation); format: cell-based, Plasmodium falciparum NF54; conditions: for Selectivity Ratio M: HepG2 Tox50 versus male IC50; for inhibition at 2 µM / Average inhibition male (%) / % inhibition male (individual replicates) R1 / % inhibition male (individual replicates) R3 / % inhibition male (individual replicates) R4: 24h preincubation with gametocytes
How it was run: (§1)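 Male and female gamete formation were quantified by microscopy image analysis following 24 h incubation of mature NF54 gametocytes with compound and activation at 28°C with xanthurenic acid.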

[2] = test system: P. falciparum female gametocytes; assay: P. falciparum Dual Gamete Formation Assay (PfDGFA), female readout (Pfs25-positive female gametes); format: cell-based, Plasmodium falciparum NF54; conditions: for Selectivity ratio F: HepG2 Tox50 versus female IC50; for inhibition at 2 µM / Average inhibition female (%) / % inhibition female (individual replicates) R1 / % inhibition female (individual replicates) R3 / % inhibition female (individual replicates) R4: 24h preincubation with gametocytes
How it was run: as §1

HepG2 cells = assay: HepG2 cytotoxicity counter-screen; conditions: for Tox50: cytotoxic activity against HepG2 cells
[3] = PfDGFA, 24 h incubation with gametocytes before induction, exflagellation readout, read-out: Male IC50
[4] = PfDGFA, 24 h incubation with gametocytes before induction, female gamete readout, read-out: Female IC50
[5] = PfDGFA at 2µM, average of replicates

Structure (SMILES)	Selectivity Ratio M [1]	Selectivity ratio F [2]	Tox50 (HepG2 cells)	Average inhibition male (%) ([1]; 2µM, average of replicates)	% inhibition male (individual replicates) R1 ([1]; 2µM, replicate R1)	% inhibition male (individual replicates) R3 ([1]; 2µM, replicate R3)	% inhibition male (individual replicates) R4 ([1]; 2µM, replicate R4)	IC50 [1, 3]	Average inhibition female (%) ([2]; 2µM, average of replicates)	% inhibition female (individual replicates) R1 ([2]; 2µM, replicate R1)	% inhibition female (individual replicates) R3 ([2]; 2µM, replicate R3)	% inhibition female (individual replicates) R4 ([2]; 2µM, replicate R4)	IC50 [2, 4]	further results
Br.c1cc(Nc2nc(-c3ccc(-c4csc(Nc5ccncc5)n4)cc3)cs2)ccn1 [TCMDC-139725]	15.17	15.01	4.53 µM											inhibition at 2 µM ([1]; Plasmodium falciparum, 2µM, average of replicates, read-out: Average inhibition male (%)): 95.5%; inhibition at 2 µM ([1]; Plasmodium falciparum, 2µM, replicate R1, read-out: % inhibition male (individual replicates) R1): 101%; inhibition at 2 µM ([1]; Plasmodium falciparum, 2µM, replicate R2, read-out: % inhibition male (individual replicates) R2): 98.4%; inhibition at 2 µM ([1]; Plasmodium falciparum, 2µM, replicate R3, read-out: % inhibition male (individual replicates) R3): 91.3%; inhibition at 2 µM ([1]; Plasmodium falciparum, 2µM, replicate R4, read-out: % inhibition male (individual replicates) R4): 91.8%; IC50 ([1]; Plasmodium falciparum, PfDGFA, 24 h incubation with gametocytes before induction, exflagellation readout, read-out: Male IC50): 0.3 µM; inhibition at 2 µM ([2]; Plasmodium falciparum, 2µM, average of replicates, read-out: Average inhibition female (%)): 92.1%; inhibition at 2 µM ([2]; Plasmodium falciparum, 2µM, replicate R1, read-out: % inhibition female (individual replicates) R1): 90.8%; inhibition at 2 µM ([2]; Plasmodium falciparum, 2µM, replicate R2, read-out: % inhibition female (individual replicates) R2): 87.3%; inhibition at 2 µM ([2]; Plasmodium falciparum, 2µM, replicate R3, read-out: % inhibition female (individual replicates) R3): 93.4%; inhibition at 2 µM ([2]; Plasmodium falciparum, 2µM, replicate R4, read-out: % inhibition female (individual replicates) R4): 96.9%; IC50 ([2]; Plasmodium falciparum, PfDGFA, 24 h incubation with gametocytes before induction, female gamete readout, read-out: Female IC50): 0.3 µM
COc1c(CCNCCCCNCCc2cc(Cl)c3ccccc3c2OC)cc(Cl)c2ccccc12.CS(=O)(=O)O [TCMDC-137869]	3.25	2.39	2.99 µM	96.4%	99.7%	90.8%	101.9%	0.92 µM	93.4%	93.5%	100.2%	88.2%	1.25 µM	
CC(CO)(CO)NCc1cc2c3ccccc3c(CNC(C)(CO)CO)cc2c2ccccc12.CS(=O)(=O)O [TC76]														Cytotox ratio Pf Male [1]: 15.0; IC50 ([1]; this study, read-out: Pf DGFA IC50 MALE): 0.87 µM; Cytotox ratio Pf Female [2]: 2.7; IC50 ([2]; this study, read-out: Pf DGFA IC50 FEM): 4.79 µM; Mean TOX (HepG2 cells; mean of the HepG2 TOX50 values): 13.04 µM
C=CCC1OC(=O)c2cc(OC)cc(OC)c21 (stereo not shown) [TCMDC-138677]	2.21	1.43	2.57 µM	100.4%	99.9%	100.4%	100.2%	1.16 µM	52.4%	41.8%	47.5%	59.2%	1.8 µM	
COc1ccc(CNC2CCN(C)CC2)cc1-c1ccc(S(=O)(=O)NCc2ccccc2)c(F)c1.O=C(O)C(F)(F)F [TCMDC-132262]	1.94	0.84	3.59 µM					1.85 µM					4.28 µM	Average inhibition male (%) [1, 5]: 74.3%; % inhibition male (individual replicates) R1 ([1]; PfDGFA at 2µM, replicate R1): 68.8%; % inhibition male (individual replicates) R4 ([1]; PfDGFA at 2µM, replicate R4): 79.4%; HitlevelM ([1]; number of replicates with >50% inhibition in the male readout, 2µM): 3; Average inhibition female (%) [2, 5]: 25.6%; % inhibition female (individual replicates) R1 ([2]; PfDGFA at 2µM, replicate R1): 21.9%; % inhibition female (individual replicates) R3 ([2]; PfDGFA at 2µM, replicate R3): 30.7%; % inhibition female (individual replicates) R4 ([2]; PfDGFA at 2µM, replicate R4): 17.0%; HitlevelF ([2]; number of replicates with >50% inhibition in the female readout, 2µM): 0
CN(CCCNCc1ccc2ccccc2c1)CCCNCc1ccc2ccccc2c1.Cl [TCMDC-137908]	8.05	3.92	4.12 µM	96.1%	95.1%	92.7%	98.2%	0.51 µM	40.6%	36.9%	42.1%	30.7%	1.05 µM	
